Experimental data published in PMC4535766, “Antiprotozoal Activity Profiling of Approved Drugs: A Starting Point toward Drug Repositioning” (PLoS ONE, 2015).
Read-outs that look alike come from different tables or passages of the source.

Legend:
P. falciparum strain K1 = experiment: In vitro activity against P. falciparum, serial drug dilution assay; conditions: for Activity against P. falciparum (in words): in vitro
Protocol: (§1) Drug stock solutions (10mg/ml) were in DMSO (100%). […] Selectivity index (SI) was calculated as IC50 L6 cells/IC50 parasite.

[1] = Cytotoxicity on macrophages infected with L. donovani; format: cell-based, mouse; conditions: mouse
[2] = system: axenic amastigotes of L. donovani, strain MHOM-ET-67/L82; experiment: In vitro activity against L. donovani axenic amastigotes, serial drug dilution assay; format: cell-based, Leishmania donovani; conditions: Leishmania donovani
Protocol: as §1

[3] = system: T. b. rhodesiense strain STIB 900, trypomastigotes; experiment: In vitro activity against T. b. rhodesiense, serial drug dilution assay; conditions: for IC50: Trypanosoma brucei; for selectivity ratio: rat
Protocol: as §1

[4] = system: intracellular amastigotes of L. donovani strain MHOM-ET-67/L82; experiment: Activity against Leishmania donovani intracellular amastigotes in mouse peritoneal macrophages; conditions: Leishmania donovani, Peritoneal macrophage, in Mus musculus
Protocol: After 24 h 1.2 x 10^5 amastigote L. donovani in 100 μl were added. The amastigotes were taken from an axenic culture grown at pH 5.4. Four hours later, the medium containing free amastigote forms was removed and replaced by fresh medium. The next day the medium was replaced by medium with or without a serial drug dilution of seven 3-fold dilution steps covering a range from 30 to 0.04 μg/ml. Parasite growth in the presence of the drug was compared to control wells. After 96 h of incubation, the medium was removed and the slides fixed with methanol for 10 min followed by staining with a 10% Giemsa solution. Infected and non-infected macrophages were counted for the control cultures and those exposed to the serial drug dilutions. The infection rates were determined. The results were expressed as a percentage reduction in parasite burden compared to control wells, and the IC50 was calculated by linear regression analysis. The collection of mouse peritoneal macrophages was done at the Swiss Tropical and Public Health Institute (Basel) according to the rules and regulations for the protection of animal rights ("Tierschutzverordnung") of the Swiss "Bundesamt für Veterinärwesen".

[5] = system: T. cruzi, strain Tulahuen C4, intracellular amastigotes; experiment: microbe, parasite or virus in culture; conditions: for IC50: Trypanosoma cruzi, TULAHUEN
Protocol: as §1

in vitro = conditions: rat
Protocol: as §1

[6] = Plasmodium falciparum, K1, read-out: IC50 P. falc. K1
[7] = macrophages infected with L. donovani, read-out: IC50 Cytotox. mac.inf.
[8] = axenic amastigotes, strain MHOM-ET-67/L82, means of two independent assays, read-out: IC50 L. don. axen.
[9] = 96 h, read-out: IC50 L. don. intracell
[10] = mouse peritoneal macrophages infected with L. donovani, macrophages infected with L. donovani, read-out: IC50 Cytotox. mac.inf.
[11] = L6 cells, IC50 Cytotox. L6, L6 cells, means of two independent assays
[12] = Plasmodium falciparum, K1, read-out: P. falc. IC50
[13] = infected macrophages, read-out: Cytotox. mac.inf. IC50
[14] = L. donovani axenic amastigotes, read-out: L. don. axen. IC50
[15] = read-out: L. don. intracell IC50

SMILES	IC50 (P. falciparum strain K1; [6]) [µM]	IC50 at 96 h [1, 7] [µM]	IC50 [2, 8] [µM]	IC50 ([3]; read-out: IC50 T. b. rhod.) [µM]	IC50 [4, 9] [µM]	IC50 ([5]; read-out: IC50 T. cruzi) [µM]	IC50 (in vitro; IC50 Cytotox. L6) [µM]	other results
OCCN(CCO)c1nc(N2CCCCC2)c2nc(N(CCO)CCO)nc(N3CCCCC3)c2n1 [Dipyridamole]	1.3	> 59.5	62	7.45	> 59.5	29.3	38.6	Activity against P. falciparum (in words) (P. falciparum strain K1): selective activities
Nc1nc(N)c2nc(-c3ccccc3)c(N)nc2n1 [Triamterene]	17.2	> 11.8	307	21.7	> 11.8	22.7	8.53	–
CN1CC(=O)N2[C@H](c3ccc4c(c3)OCO4)c3[nH]c4ccccc4c3C[C@@H]2C1=O [Tadalafil]	> 12.8	> 77	40.1	97.6	> 77	8.6	221	Selectivity index: IC50 Cytotoxicity L6/ IC50 T. cruzi ([5]; rat): 26; selectivity ratio ([5]; rat, Selectivity index: IC50 Cytotoxicity L6/ IC50 T. cruzi): > 26
COc1ccc2[nH]c([S+]([O-])Cc3ncc(C)c(OC)c3C)nc2c1 (stereo not shown) [Omeprazole]	13.2	> 86.9	90.9	51.8	> 86.9	68.3	126	–
Cc1cn([C@H]2C=C[C@@H](CO)O2)c(=O)[nH]c1=O [Stavudine]	186	–	> 446	120	> 134	341	–	IC50 at 96 h [1, 10]: > 134 µM; IC50 (in vitro; [11]): 266 µM
CN1CCC(=C2c3ccccc3CCc3sccc32)CC1 [Pizotifen]	1.86	–	215	3.99	> 33.9	30.6	–	IC50 at 96 h [1, 10]: > 102 µM; selectivity ratio [3]: 11; IC50 (in vitro; [11]): 45 µM
CC(C)CN(C[C@@H](O)[C@H](Cc1ccccc1)NC(=O)O[C@H]1CCOC1)S(=O)(=O)c1ccc(N)cc1 [Amprenavir]	15.2	> 59.3	113	28.5	> 59.3	105	–	IC50 (in vitro): 160 µM
CC(=O)[C@H]1CC[C@H]2[C@@H]3CC[C@H]4C[C@](C)(O)CC[C@]4(C)[C@H]3CC[C@]12C [Ganaxolone]	–	–	–	–	–	–	–	IC50 (P. falciparum strain K1; [12]): > 15 µM; IC50 at 96 h [1, 13]: > 90.2 µM; IC50 [2, 14]: 42.5 µM; IC50 ([3]; read-out: T. b. rhod. IC50): 5.47 µM; IC50 [4, 15]: > 90.2 µM; IC50 ([5]; read-out: T. cruzi IC50): 65 µM; IC50 (in vitro): 23.5 µM
NC12CC3CC(CC(C3)C1)C2 [Amantadine]	5.67	> 198	> 595	52.8	> 198	371	215	–
CN(C)CCCN1c2ccccc2Sc2ccc(C(F)(F)F)cc21 [Triflupromazine]	–	–	–	1.42	–	–	–	IC50 (P. falciparum strain K1; [12]): 2.72 µM; MCC at 96 h [1, 13]: 28.4 µM; IC50 [2, 14]: 79.8 µM; selectivity ratio ([3]; L6 cells versus T. b. rhodesiense STIB 900 trypomastigotes): 13; IC50 [4, 15]: > 8.51 µM; IC50 ([5]; read-out: T. cruzi IC50): 15 µM; IC50 (in vitro; [11]): 18.5 µM
CN1CCN(CCCN2c3ccccc3Sc3ccc(C(F)(F)F)cc32)CC1 [Trifluoperazine]	1.48	24.5	52.9	1.23	> 7.36	10.1	–	IC50 (in vitro; [11]): 11 µM
CC[C@H]1OC(=O)[C@H](C)[C@@H](O[C@H]2C[C@@](C)(OC)[C@@H](O)[C@H](C)O2)[C@H](C)[C@@H](O[C@@H]2O[C@H](C)C[C@H](N(C)C)[C@H]2O)[C@](C)(O)C[C@@H](C)C(=O)[C@H](C)[C@@H](O)[C@]1(C)O [Erythromycine (Hydrate), Erythromycine]	9.91	> 39.9	> 133	72.1	> 39.9	114	92.2	–
CCS(=O)(=O)CCn1c([N+](=O)[O-])cnc1C [Tinidazole]	–	> 81	> 81	16.6	> 81	> 81	> 243	Activity against T. b. rhodesiense (in words) ([3]; in vitro): inactive
C[C@@H](c1ncncc1F)[C@](O)(Cn1cncn1)c1ccc(F)cc1F [Voriconazole]	> 143	> 85.9	> 286	> 286	> 85.9	11.2	195	–
CCN(CC)CCCC(C)Nc1ccnc2cc(Cl)ccc12 (stereo not shown) [Chloroquine (Diphosphate), Chloroquine]	0.17	–	–	3.81	–	–	–	selectivity ratio (P. falciparum strain K1; rat): 298; IC50 (P. falciparum strain K1; read-out: IC50 P. falc. K1): 0.13 µM; IC50 at 96 h [1, 13]: > 58.9 µM; IC50 ([2]; read-out: L. don. axen. IC50): > 196 µM; selectivity ratio [3]: 13; IC50 [4, 15]: > 58.9 µM; IC50 ([5]; read-out: T. cruzi IC50): 99.2 µM; IC50 (in vitro): 50.6 µM
C[C@H]1c2cccc(O)c2C(=O)C2=C(O)[C@]3(O)C(=O)C(C(N)=O)=C(O)[C@@H](N(C)C)[C@@H]3[C@@H](O)[C@@H]21 [Doxycycline]	–	–	–	–	–	–	–	IC50 (P. falciparum strain K1; [12]): 4.48 µM; MCC at 96 h [1, 13]: 67.5 µM; IC50 [2, 14]: 24.1 µM; IC50 ([3]; read-out: T. b. rhod. IC50): 63.7 µM; IC50 [4, 15]: > 22.5 µM; IC50 ([5]; read-out: T. cruzi IC50): 39.1 µM; IC50 (in vitro; Cytotox. L6 IC50): 14.5 µM
Cn1c([N+](=O)[O-])cnc1N1CCN(S(C)(=O)=O)C1=O [Satranidazole]	–	–	10.4	18.7	> 104	19.1	–	IC50 at 96 h [1, 10]: > 104 µM; IC50 (in vitro; [11]): > 311 µM

SMILES	IC50 (P. falciparum strain K1; [6]) [µM]	IC50 at 96 h [1, 7] [µM]	IC50 [2, 8] [µM]	IC50 ([3]; read-out: IC50 T. b. rhod.) [µM]	IC50 [4, 9] [µM]	IC50 ([5]; read-out: IC50 T. cruzi) [µM]	IC50 (in vitro; IC50 Cytotox. L6) [µM]	other results
CC(C)c1nc(CN(C)C(=O)N[C@H](C(=O)N[C@@H](Cc2ccccc2)C[C@H](O)[C@H](Cc2ccccc2)NC(=O)OCc2cncs2)C(C)C)cs1 [Ritonavir]	16.2	–	8.97	4.3	> 41.6	20.7	–	–
CC(C)CN(C[C@@H](O)[C@H](Cc1ccccc1)NC(=O)O[C@H]1CO[C@H]2OCC[C@H]21)S(=O)(=O)c1ccc(N)cc1 [Darunavir]	46.9	–	125	31.4	> 54.8	92.2	–	–
Cc1ncc([N+](=O)[O-])n1CC(O)CCl (stereo not shown) [Ornidazole]	–	> 136	> 136	25.9	> 136	130	> 408	–
CCN(CC)CCOc1ccc(C(=C(Cl)c2ccccc2)c2ccccc2)cc1 [Clomiphene]	–	–	–	–	–	–	–	MCC at 96 h [1, 13]: 24.6 µM; IC50 (in vitro; Cytotox. L6 IC50): 13.1 µM
CSc1ccc2c(c1)N(CCC1CCCCN1C)c1ccccc1S2 (stereo not shown) [Thioridazine]	–	–	–	–	–	–	5.39	MCC at 96 h [1, 13]: 25.8 µM
CCC(C)n1ncn(-c2ccc(N3CCN(c4ccc(OCC5COC(Cn6cncn6)(c6ccc(Cl)cc6Cl)O5)cc4)CC3)cc2)c1=O (stereo not shown) [Itraconazole]	1.37	–	2.42	8.53	> 1.42	0.004	1.11	–
CN(C)CCCN1c2ccccc2CCc2ccc(Cl)cc21 [Clomipramine]	–	31.8	–	–	–	–	19.8	–
CCCCCCCCCCCCCCCCOP(=O)([O-])OCC[N+](C)(C)C [Miltefosine]	–	–	–	–	1.21	–	–	–
CC(=O)N1CCN(c2ccc(OCC3COC(Cn4ccnc4)(c4ccc(Cl)cc4Cl)O3)cc2)CC1 (stereo not shown) [Ketoconazole]	–	–	38.8	33.1	> 18.8	0.27	–	IC50 (in vitro): 51 µM
OCCN1CCN(CCCN2c3ccccc3Sc3ccc(C(F)(F)F)cc32)CC1 [Fluphenazine]	–	22.9	–	–	–	–	11.5	Activity against P. falciparum (in words) (P. falciparum strain K1): micromolar range
Clc1ccc2c(c1)C(N1CCNCC1)=Nc1ccccc1O2 [Amoxapine]	–	31.9	–	–	–	–	16.2	–
CNCCC(Oc1ccc(C(F)(F)F)cc1)c1ccccc1 (stereo not shown) [Fluoxetine]	–	–	–	–	–	–	15	Activity against P. falciparum (in words) (P. falciparum strain K1): micromolar range; MCC at 96 h [1, 7]: 32.3 µM
CCCSc1ccc2nc(NC(=O)OC)[nH]c2c1 [Albendazole]	–	–	> 113	14.7	> 3.77	12.3	–	IC50 (in vitro): 0.41 µM
Cc1ncc([N+](=O)[O-])n1CC(C)O (stereo not shown) [Secnidazole]	–	> 161	> 161	28.7	> 161	> 161	> 483	–
Nc1nc(N)nc(Nc2ccc([As]3SCC(CO)S3)cc2)n1 (stereo not shown) [Melarsoprol]	–	–	–	0.01	–	–	–	–
O=C(Cn1ccnc1[N+](=O)[O-])NCc1ccccc1 [Benznidazole]	–	–	–	–	–	1.99	–	–
